What was measured:
5-LO (5-lipoxygenase) = biological target: T1, 5-LO (5-lipoxygenase) (Homo sapiens, UniProt P09917); assay: 5-LO enzyme assay using a FOX reagent; type: biochemical; conditions: read-out: 5-LO (% inhibition at 1 μM); test sample 1 μM; lysates from 5-LO expressing insect cells; table does not say FOX or 234 nm readout
T1 construct: made in house; host or cells: insect cells (lysate, 7 μg)
T1 sequence (P09917 1-674): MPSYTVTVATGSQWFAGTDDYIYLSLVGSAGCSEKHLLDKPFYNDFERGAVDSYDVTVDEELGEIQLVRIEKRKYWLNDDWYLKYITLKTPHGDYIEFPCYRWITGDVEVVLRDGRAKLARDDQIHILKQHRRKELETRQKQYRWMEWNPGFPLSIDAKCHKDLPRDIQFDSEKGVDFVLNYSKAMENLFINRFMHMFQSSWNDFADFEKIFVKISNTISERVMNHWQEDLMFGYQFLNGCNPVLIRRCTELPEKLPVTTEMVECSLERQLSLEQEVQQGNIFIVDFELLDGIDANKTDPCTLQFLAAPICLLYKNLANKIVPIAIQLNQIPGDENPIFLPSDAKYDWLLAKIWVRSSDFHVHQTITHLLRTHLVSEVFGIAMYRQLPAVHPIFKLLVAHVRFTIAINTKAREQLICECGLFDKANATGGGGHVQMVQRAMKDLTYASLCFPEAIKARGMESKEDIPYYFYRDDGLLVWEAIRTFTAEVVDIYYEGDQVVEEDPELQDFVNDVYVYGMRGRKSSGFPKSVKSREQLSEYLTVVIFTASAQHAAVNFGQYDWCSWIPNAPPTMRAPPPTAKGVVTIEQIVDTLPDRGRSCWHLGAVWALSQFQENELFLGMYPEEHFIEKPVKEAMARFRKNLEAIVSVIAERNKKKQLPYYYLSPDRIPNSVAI
Description: Each test sample was added to lysates (7 μg) obtained from 5-LO expressing insect cells at a final concentration of 1 μM and reacted at room temperature for 3 min. Arachidonic acid as an enzyme substrate (40 μM) was added thereto and further reacted at room temperature for 4 min. Then, a FOX reagent (sulfuric acid 25 mM, xylenol orange 100 μM, FeSO4 100 μM; methanol: water=9:1) 100 μl was added thereto, and the absorbance of the reaction mixture was measured at 575 nm after 5 min.

[1] = test system: arachidonic acid-induced ear inflammation (mouse ear edema model); assay: Mouse ear edema model (arachidonic acid-induced; ear thickness and MPO activity); type: in vivo; conditions: ICR mouse, oral, 1 hr before arachidonic acid treatment, versus arachidonic acid-only control
Description: The inside of the right ear of ICR mouse (6 week old) was treated with 2 mg of arachidonic acid dissolved in 20 μl of acetone for 1 hr to induce an inflammation.
After 1 hr, the difference between the right ear treated with arachidonic acid and the nontreated left ear was measured with a microgauge. Further, to measure the amount of neutrophil penetrated into a tissue as a primary marker for inflammation induction, the myeloperoxidase (MPO) activity was measured. In particular, the tissue obtained from the arachidonic acid-treated right ear was homogenized in 50 mM phosphate buffer solution (pH 6.0) supplemented with 0.5% hexadecyltrimethylammonium bromide (HTAB), subjected to centrifugation, and then, the MPO activity of the supernatant was measured.
To measure in vivo activity of each test compound, each compound was dissolved in 0.5% methylcellulose (10 mL/kg) and orally administered to the mice 1 hr before the arachidonic acid treatment. After the arachidonic acid was treated for 1 hr, the ear thickness and MPO activity were measured, and in vivo activity of the test compound was estimated by comparing them with those of a control which was treated with arachidonic acid only without the test compoud.

Row | inhibition at 1 µM (5-LO (5-lipoxygenase)) [%] | SMILES | Animal model (% inhibition) Thickness (T) % ([1]; ear thickness) [%] | Animal model (% inhibition) MPO % ([1]; myeloperoxidase activity of ear tissue) [%]
1 | 61 | CCCC1(C)C=Cc2cc(NCc3ccccc3)ccc2O1 (stereo not shown) [1-81] |  | 
2 | 84 | COc1ccc(CNc2ccc3c(c2)C=CC(C)(CCc2ccccc2)O3)cc1 (stereo not shown) [1-124] |  | 
3 | 72 | COc1ccc(CCC2(C)C=Cc3cc(NCc4ccccc4)ccc3O2)cc1 (stereo not shown) [1-161] |  | 
4 | 51 | COc1ccc(CNc2cc3c(cc2C)OC(C)(CCc2ccccc2)C=C3)cc1 (stereo not shown) [1-324] |  | 

Row | SMILES | inhibition at 1 µM (5-LO (5-lipoxygenase)) [%] | Animal model (% inhibition) Thickness (T) % ([1]; ear thickness) [%] | Animal model (% inhibition) MPO % ([1]; myeloperoxidase activity of ear tissue) [%]
5 | CC(c1cc2ccccc2s1)N(O)C(N)=O (stereo not shown) [Zileuton, reference compound] | 85 | 67 | 38
